From patent US20170218375A1, “MORPHOLINOS, MORPHOLINO UPREGULATING, AND ASSOCIATED METHODS” (University of Utah Research Foundation, priority 2011, published 2017)
{Dendrimer} = dendrimer conjugate (vivo-morpholino)

Assays:
Assay type in all cases: in vivo
sVEGFR2/mbVEGFR2 mRNA = assay: Real-time PCR of mouse retinal total RNA after intravitreous injection; conditions: 2 μl of 100 ng/μl intravitreously on day 0 and day 3, retina on day 4, vivo-morpholino
Excerpt: To administer morpholinos in vivo, morpholino conjugated with a dendrimer at the 3′ position (vivo-morpholino) was used for animal experiments. It should be understood that this technique is merely exemplary, and any other method of administration is considered to be within the present scope. […] Next, the protein level of mbVEGFR2 and sVEGFR2 in the retina and the ocular solution was examined by western blot. Consistent with real-time PCR results, moVEGFR2_MOe13 decreased mbVEGFR2 protein in the retina (FIG. 7C) and increased sVEGFR2 protein in the ocular solution (FIG. 7D).
To examine whether moVEGFR2_MOe13 could work in the mouse eye, on day 0 and day 3 2 μl of 100 ng/μl moVEGFR2_MOe13 or STD_MO or DPBS were injected intravitreously. On day 4, retinal total RNA was extracted with RNeasy mini kit with DNaseI treatment. sVEGFR2 and mbVEGFR2 mRNA expression were determined by the method described above. For western blot of mbVEGFR2, on day 4, retina was dissolved in RIPA buffer. For western blot of sVEGFR2, on 4 day, intraocular solution was obtained from 6 eyes by pipette. After centrifuge, supernatant was used for further experiment. For western blot, biotin-conjugated anti-VEGFR2 (BAF644, R&D Systems, Minneapolis, Minn.) was used at 1 μg/μl.

[1] = tested on: laser-induced choroidal neovascularization (CNV); assay: Laser-induced choroidal neovascularization (CNV) in mouse
Protocol: It was also examined whether moVEGFR2_MOe13 inhibits laser-induced choroidal neovascularization (CNV). Each morpholino or DPBS was injected intravitreously on day 1 and day 4 after laser photocoagulation, and laser CNV volumes were examined on day 7. […] Vessel endothelial cells were stained with Alexa fluor488 conjugated isolectin GS-IB4. […] After photocoagulation, on day 1 and day 4, 2 ul of 100 ng/μl STD_MO, 500 ng/μl Goat IgG (AB-108-C, R&D Systems, Minneapolis, Minn.), 100 ng/μl moVEGFR2_MOe13, 500 ng/μl Goat Anti-mouse VEGF-A IgG (AF-493-NA, R&D Systems, Minneapolis, Minn.) or 2 ng/μl SU1498 (572888, EMD chemicals, Gibbstown, N.J.) was injected intravitreously. On day 7, CNV volumes were measured by confocal microscope. n=14-20 for each group. Risk factors (p-value) were calculated by two-tail student's t-test (*: p<0.05, **p<0.01). Error bar is ±s.e.m.
Each morpholino oligomer was purchased from Gene Tools (Philomath, Oreg.). The sequences of each morpholino oligomer and primers for PCR are listed in supplemental Table. HUVECs (Lonza, Walkersville, Md.) were cultured in EBM with EGM SingleQuot Kit supplements and growth factors according to the manufacturer's instructions (Lonza, Walkersville, Md.). MS-1 cells, a mouse endothelial cell line (ATCC, Manassas, Va.) were cultured in 5% FBS/DMEM. Morpholino oligomers were delivered to the nucleus by nucleofection (Amaxa, Gaithersburg, Md.) with a Basic Nucleofector Kit for Primary Mammalian Endothelial Cells (Amaxa, Gaithersburg, Md.) using program A-034 for HUVEC and MS-1 cells. For each nucleofection, 1×10^6 cells were used and plated on a 6-well plate. After 2 days of culture, cells were trypsinized and total RNA was extracted using a RNeasy mini kit (Qiagen, Valencia, Calif.) with DNaseI treatment. Detection of mbVEGFR2 was achieved by flow cytometry. […] The cells were washed three times and fluorescence was detected by a FACScan Analyzer (BD Biosciences, San Jose, Calif.). […]

[2] = tested on: suture-induced corneal neovascularization and lymphangiogenesis; assay: Mouse corneal suture model (CD31 and LYVE-1 stained cornea flatmount); conditions: for suppression of suture-induced neovascularization: CD31; for suppression of lymphangiogenesis: LYVE-1
Protocol: In another aspect, a corneal suture model can be used to evaluate angiogenesis. For the one week subarm, each morpholino or DPBS was injected subconjunctivally one day prior to and four days after suturing; the corneas were harvested at seven days post suturing. For the two week subarm, each morpholino or DPBS was injected subconjunctivally one day prior and four, seven and ten days after suturing; the corneas were harvested at fourteen days. CD31 and LYVE-1 were used as markers of neovascularization and lymphangiogenesis, respectively. FIGS. 10 and 11 representative images of CD31 stained corneas at one week and LYVE-1 stained corneas at two weeks, respectively.
Under anesthesia, 15 μl of moVEGFR2_MOe13 (40 ng/μl), STD_MO (40 ng/μl) or DPBS was injected subconjunctivally into two different places one day prior to the placement of 2 symmetrical 11-0 nylon sutures, followed by re-injection at four days after suture placement. Eyes were harvested 7 days after suture placement. In a second group, 15 μl of moVEGFR2_MOe13 (40 ng/μl), STD_MO (40 ng/μl) or DPBS was injected subconjunctivally into two different places one day prior to the placement of 2 symmetrical 11-0 nylon sutures. Subconjunctival injections were repeated at four, seven and ten days after suture placement. Eyes were harvested 14 days after suture placement. The corneas were fixed in acetone at room temperature for 20 minutes. After 4 washes in PBST (0.1% Tween20/PBS), the corneas were incubated in 3% BSA/PBS at 4° C. for 3 days. To detect CD31 and LYVE1, corneas were incubated in 3% BSA/PBS with FITC-conjugated rat anti-CD31 antibody (553372, 1:500, BD Biosciences, San Jose, Calif.) or rabbit anti-LYVE-1 (ab14917, 1:200, Abcam, Cambridge, Mass.) overnight at 4° C. After 3 washes in PBST, the corneas were incubated in 3% BSA/PBS with Alexa Fluor® 546 conjugated goat anti-rabbit IgG (A11071, 1:2000, Invitrogen Corporation, Carlsbad, Calif.) for one hour at room temperature. After 4 washes in PBST, corneas were mounted on slide glass with Fluoro-gel (Electron Microscopy Sciences, Hatfield, Pa.). Fluorescence was observed by fluorescence microscope (Carl Zeiss MicroImaging, Inc., Thornwood, N.Y.). The data for each suture was calculated by ImageJ separately. Areas where sutures had fallen out were not included in the final calculations.

5′-cacccagggatgcctccatacCTAG-3′ (antisense CACCCAGGGATGCCTCCATACCTAG; all phosphorodiamidate morpholino (PMO), 3' {Dendrimer}) [moVEGFR2_MOe13, morpholino that targets the exon13-intron13 junction of the mouse VEGFR2 gene; in vivo conjugated with a dendrimer (vivo-morpholino)]
sVEGFR2/mbVEGFR2 mRNA ratio in retina (sVEGFR2/mbVEGFR2 mRNA): significantly increased
suppression of CNV compared with anti-VEGF-A IgG and SU1498 (FIG. 9) ([1]; 2 μl intravitreously day 1 and day 4: 100 ng/μl moVEGFR2_MOe13, 500 ng/μl anti-mouse VEGF-A IgG, 2 ng/μl SU1498, CNV volume day 7): comparable
laser CNV volume ([1]; intravitreous injection on day 1 and day 4 after laser photocoagulation, volume on day 7, compared with STD_MO (p<0.05) and DPBS (p<0.01)): significantly suppressed
suppression of suture-induced neovascularization ([2]; 1 week, 15 μl of 40 ng/μl subconjunctivally one day prior to and four days after suturing, compared to DPBS, p<0.001): 52.2%
suppression of lymphangiogenesis ([2]; 2 weeks after suture placement, compared to DPBS, p<0.05): 27.8%
suppression of suture-induced neovascularization ([2]; 2 weeks, 15 μl of 40 ng/μl subconjunctivally one day prior and four, seven and ten days after suturing, compared to DPBS, p<0.05): 29.6%
suppression of lymphangiogenesis ([2]; one week after suture placement): did not suppress
